# Assay results published in patent US10668048B2, “Compounds for inhibiting bacterial growth via phosphatidylglycerol binding” (Wichita State University, priority 2016, dated 2020).
# Experiments:
# [1] = FCS binding of liptin to PG at the membrane interface (liposomes, surfactant vesicles)
# Procedure: The porphyrin 3e was used to examine the liptin's affinity and selectivity for PG when PG was present as part of a membrane bilayer. In this example, fluorescence correlation spectroscopy (FCS) was used to measure the fraction of liptin bound to surfactant vesicles or liposomes containing a known amount of PG. This approach is fast, reliable and accurate, and is possible when the liptin is a stable fluorophore, as in the case of 3e.
# FCS results are evaluated by treating the time dependent fluorescence intensity acquired from a dilute solution of the liptin using a focused laser beam as the excitation source. Temporal fluctuations in the fluorescence intensity are a result of the diffusion of the liptin through the focused laser beam. When the liptin binds to a vesicle, its apparent diffusion coefficient decreases by two orders of magnitude.
# FIG. panels 9A and 9C contain examples of autocorrelation decays for liptin 3e in with liposomes (FIG. 9A) and surfactant vesicles (FIG. 9C) containing varying amounts of PG. Specifically, FIG. 9 illustrates an autocorrelation analysis of liptin 3e binding to PG-doped membranes of liposomes and positively-charged surfactant vesicles. A) Autocorrelation decays for liptin with varying percentages of PG in PE liposome. B) Binding constant values as a function of PS and PG in PE liposome. C) Autocorrelation decays for liptin with varying percentages of PG in positively-charged surfactant vesicles. D) Binding constant of liptin with varying percentages of PG in positively-charged surfactant vesicles. […] In FIGS. 9A and 9C, the markers are the experimental data and the solid lines are the fits that determine the fraction of liptin bound, f. This quantity is then used to calculate the binding constant:
# [formula] where [R] is the total concentration of […], and it has been assumed that half of the PG is located on the membrane inner leaflet and thus not available for binding.
# [2] = tested on: S. aureus plasma membrane; experiment: Plasma membrane depolarization, DiS-C2(5) fluorescence; type: cell-based; conditions: 0.69-2.6 μM added at 90 s
# Procedure: The graph in FIGS. 15A-15C represents the depolarization of S. aureus plasma membrane measured by an increase in the fluorescence of 3,3-diethylthiodicabodyanine iodide. The dye, which has direct access to the Gram-positive plasma membrane, becomes highly fluorescent in membranes where polarization is lost. […] The membrane effects were measured against the known membrane-disruptive agent, cationic steroid antimicrobial-25 (CSA-25), one of a group of cholic acid-derived antimicrobial also known as ceragenins. This assay measured the effects of the Ammonium-picket porphyrin alone those of CSA-25 alone or a combination of Ammonium-picket porphyrin and CSA-25.
# Bacterial cultures were grown overnight in TSB at 37° C. Cells were harvested by centrifugation and washed in a buffer containing 250 mM sucrose, 5 mM MgSO4, and 10 mM potassium phosphate (pH 7.0). After three washings, pellets were re-suspended in the same buffer. […] Fluorescence measurements were taken at 30-s intervals before and after addition of ceragenins. FIG. 15A illustrates the depolarization of S. aureus measured by an increase in fluorescence of 3,3′ diethylthiodicarbodyanine iodide (DiS-C2(5)). […]
# FIG. 15B illustrates the depolarization of S. aureus measured by an increase in fluorescence of 3,3′ diethylthiodicarbodyanine iodide. […]
# Water solubility = type: physicochemical; conditions: TFA counterions
# Source text: Route 1 involves reductive amination of the uncharged glycine picket with an aldehyde. Route 2 involves amidation of the meso-phenylamines via addition of chloroacetyl chloride followed by the SN2 addition of amines to the resultant alkyl chloride (examples of alkyl, polyether, or benzyl amines are shown in Scheme 1). Route 2 is capable of furnishing a more diverse set of pickets, and modeling has shown that the use of the aryl amines shown in Scheme 1 would position their phenolic OH groups to allow for hydrogen bonding with the lipid's fatty acid ester groups. At the present time, porphyrins 3f-h have been furnished using Route 2. Route 3 involves the transformation of the meso-phenylamines into phenylisocyanates, followed by the addition of a substituted hydrazine (prepared from an aldehyde and hydrazine to form the hydrazone followed by reductive amination or with commercially available hydrazines) to furnish a semicarbazide group whose nitrogen can be charged (FIG. 6). The urea portion of the semicarbazide would provide additional strong hydrogen-bonding sites for the glycerol hydroxyl groups.
compound,measurement,setting,value
NCC(=O)Nc1ccccc1-c1c2nc(c(-c3ccccc3NC(=O)CN)c3ccc([nH]3)c(-c3ccccc3NC(=O)CN)c3nc(c(-c4ccccc4NC(=O)CN)c4ccc1[nH]4)C=C3)C=C2.O=C(O)C(F)(F)F.O=C(O)C(F)(F)F.O=C(O)C(F)(F)F.O=C(O)C(F)(F)F [Liptin 3e],PG binding affinities at the membrane interface,[1]; FCS,~10^4 M^−1
same,Ka,[1]; Lipid vesicles containing 10-30% PG,10^4
same,selectivity of binding PG vs phosphatidylserine (PS),[1]; lipid vesicles of binary mixtures of PG or PS with PE,selective for PG over the PS
same,binding to surfactant vesicle without PG,"[1]; no PG, only anionic component sodium dodecylbenzenesulfonate (SDBS)",Negligible binding
same,binding constant,[1]; surfactant vesicle with 1% of PG and 35% SDBS,47000 M⁻¹
same,"depolarization: fluorescence of 3,3-diethylthiodicabodyanine iodide",[2],increased in a concentration-dependent manner
same,water solubility,Water solubility,quite water soluble
